Drawing on patent US10053431B2, “Tetrahydro-benzodiazepinones” (priority 2013, dated 2018), this text covers IC50 for 21 molecules.

The structures appear in SMILES notation. Where a name gives a salt, the structure may show the parent alone. Read-outs that look alike come from different tables or passages of the source.

One assay has as its target BIR3 domain of XIAP (Homo sapiens (Human), UniProt P98170). The assay can be described thus: TR-FRET assay for BIR3 (inhibition of binding of XIAP BIR3 domain to SMAC-derived Peptide A). Particulars: 6x His-tagged BIR3 domain (aa 241-356 of XIAP) 10 nM, Peptide A 20 nM, TR-FRET. (In TR-FRET formats the signal depends on donor and acceptor labels being close together.)
A further assay addresses BIR2 domain of XIAP (Homo sapiens (Human), UniProt P98170, C202A/C213G). The assay is described as follows: TR-FRET assay for BIR2 (inhibition of binding of XIAP BIR2 domain to SMAC-derived Peptide A).
Where [1] appears, read: 6x His-tagged BIR2 domain (aa 124-240 of XIAP) 10 nM, Peptide A 20 nM, TR-FRET, read-out: IC50 BIR2.

BIR2 domain of XIAP, sequence (P98170 124-240 with tags or gaps C202A/C213G limits assumed): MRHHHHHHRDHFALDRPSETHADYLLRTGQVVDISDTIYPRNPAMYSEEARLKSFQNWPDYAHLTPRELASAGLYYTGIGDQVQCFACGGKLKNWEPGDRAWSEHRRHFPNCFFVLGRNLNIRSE
BIR3 domain of XIAP, sequence (P98170 241-356 with tags or gaps limits assumed): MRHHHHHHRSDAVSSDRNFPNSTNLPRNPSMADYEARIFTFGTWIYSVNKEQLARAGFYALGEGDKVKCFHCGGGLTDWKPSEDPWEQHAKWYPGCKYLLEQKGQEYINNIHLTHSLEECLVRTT

One may read the IC50 as the concentration that gives 50% inhibition. In the case of `COc1ccc2ccccc2c1CN1C(=O)C(NC(=O)[C@H](C)N)C(=O)N(CC23CC4CC(CC(C4)C2)C3)c2ccccc21` (stereo partly drawn) [Example 111, (2S)-N-[5-(1-adamantylmethyl)-1-[(2-methoxynaphthalen-1-yl)methyl]-2,4-dioxo-1,5-benzodiazepin-3-yl]-2-aminopropanamide], the IC50 on BIR3 domain of XIAP is over 54800 nM; at BIR2 domain of XIAP (setting [1]) it was 295 nM.
For `CC[C@H](NC)C(=O)NC1C(=O)N(Cc2c(OC)ccc3ccccc23)c2ccccc2N(CC23CC4CC(CC(C4)C2)C3)C1=O` (stereo partly drawn) [Example 113, (2S)-N-[5-(1-adamantylmethyl)-1-[(2-methoxynaphthalen-1-yl)methyl]-2,4-dioxo-1,5-benzodiazepin-3-yl]-2-(methylamino)butanamide], the IC50 at BIR3 domain of XIAP was over 54800 nM; on BIR2 domain of XIAP (setting [1]), 324 nM.
On to `CC[C@H](NC)C(=O)NC1C(=O)N(C)c2ccccc2N(Cc2c(C)ccc3ccccc23)C1=O` (stereo partly drawn) [Example 114, (2S)-N-(1-methyl-5-((2-methylnaphthalen-1-yl)methyl)-2,4-dioxo-2,3,4,5-tetrahydro-1H-benzo[b][1,4]diazepin-3-yl)-2-(methylamino)butanamide], for which the IC50 at BIR3 domain of XIAP was over 54800 nM; at BIR2 domain of XIAP (setting [1]), 530 nM.
Consider `CC[C@H](NC)C(=O)NC1C(=O)N(Cc2c(C)ccc3ccccc23)c2ccccc2N(c2ccccc2)C1=O` (stereo partly drawn) [Example 115, (2S)-2-(methylamino)-N-(1-((2-methylnaphthalen-1-yl)methyl)-2,4-dioxo-5-phenyl-2,3,4,5-tetrahydro-1H-benzo[b][1,4]diazcpin-3-yl)butanamide], for which the concentration for half-maximal inhibition (IC50) is over 54800 nM on BIR3 domain of XIAP and 68.7 nM at BIR2 domain of XIAP (IC50 BIR2).
As to `CN[C@@H](C)C(=O)NC1C(=O)N(Cc2c(C)ccc3ccccc23)c2ccccc2N(c2ccccc2)C1=O` (stereo partly drawn) [Example 116, (2S)-2-(methylamino)-N-(1-((2-methylnaphthalen-1-yl)methyl)-2,4-dioxo-5-phenyl-2,3,4,5-tetrahydro-1H-benzo[b][1,4]diazepin-3-yl)propanamide], the half-inhibitory concentration (IC50) on BIR3 domain of XIAP was over 54800 nM; on BIR2 domain of XIAP (IC50 BIR2) it was 39.8 nM.
Consider `CN[C@@H](C)C(=O)N[C@H]1CN(C(=O)c2ccc(C(C)=O)cc2)c2ccccc2N(Cc2nn(-c3ccccc3C#N)c3ccccc23)C1=O` [Example 120, (S)-N-((S)-5-(4-acetylbenzoyl)-1-((1-(2-cyanophenyl)-1H-indazol-3-yl)methyl)-2-oxo-2,3,4,5-tetrahydro-1H-benzo[b][1,4]diazepin-3-yl)-2-(methylamino)propanamide 2,2,2-trifluoroacetate], for which the IC50 on BIR3 domain of XIAP was over 54800 nM; at BIR2 domain of XIAP (setting [1]), 6.28 nM.
Consider `CN[C@@H](C)C(=O)N[C@H]1CN(C(=O)c2ccc(N)cc2)c2cc(Cl)ccc2N(Cc2c(C)ccc3ccccc23)C1=O` [Example 121, (S)-N-((S)-5-(4-aminobenzoyl)-7-chloro-1-((2-methylnaphthalen-1-yl)methyl)-2-oxo-2,3,4,5-tetrahydro-1H-benzo[b][1,4]diazepin-3-yl)-2-(methylamino)propanamide hydrochloride], for which the values for the IC50 on BIR3 domain of XIAP and at BIR2 domain of XIAP (setting [1]) were 46400 nM and 14.8 nM, respectively.
As for `CN[C@@H](C)C(=O)N[C@H]1CN(C(=O)c2ccc(N)cc2)c2cc(Cl)ccc2N(Cc2c(OC)ccc3c(Br)cccc23)C1=O` [Example 123, (S)-N-((S)-5-(4-aminobenzoyl)-1-((5-bromo-2-methoxynaphthalen-1-yl)methyl)-7-chloro-2-oxo-2,3,4,5-tetrahydro-1H-benzo[b][1,4]diazepin-3-yl)-2-(methylamino)propanamide hydrochloride], the IC50 is 18700 nM on BIR3 domain of XIAP and 6.71 nM at BIR2 domain of XIAP (setting [1]).
Regarding `CN[C@@H](C)C(=O)N[C@H]1CN(C(=O)c2ccc(C(C)=O)cc2)c2cc(Cl)ccc2N(Cc2c(OC)ccc3c(Br)cccc23)C1=O` [Example 125, (S)-N-((S)-5-(4-acetylbenzoyl)-1-((5-bromo-2-methoxynaphthalen-1-yl)methyl)-7-chloro-2-oxo-2,3,4,5-tetrahydro-1H-benzo[b][1,4]diazepin-3-yl)-2-(methylamino)propanamide hydrochloride], the IC50 was found to be 25600 nM on BIR3 domain of XIAP and 7.92 nM on BIR2 domain of XIAP (setting [1]).
On to `CN[C@@H](C)C(=O)N[C@H]1CN(C(=O)c2ccc(F)cc2)c2cc(Cl)ccc2N(Cc2c(OC)ccc3c(Br)cccc23)C1=O` [Example 126, (S)-N-((S)-1-((5-bromo-2-methoxynaphthalen-1-yl)methyl)-7-chloro-5-(4-fluorobenzoyl)-2-oxo-2,3,4,5-tetrahydro-1H-benzo[b][1,4]diazepin-3-yl)-2-(methylamino)propanamide hydrochloride], for which the IC50 on BIR3 domain of XIAP came to 21500 nM; at BIR2 domain of XIAP (setting [1]) it was 17.2 nM.
With `CN[C@@H](C)C(=O)NC1C(=O)N(Cc2c(OC)ccc3cc(Br)ccc23)c2ccccc2N(c2ccccc2)C1=O` (stereo partly drawn) [Example 128, (2S)-N-(1-((6-bromo-2-methoxynaphthalen-1-yl)methyl)-2,4-dioxo-5-phenyl-2,3,4,5-tetrahydro-1H-benzo[b][1,4]diazepin-3-yl)-2-(methylamino)propanamide], the IC50 at BIR3 domain of XIAP amounted to 44800 nM; on BIR2 domain of XIAP (IC50 BIR2), 4.99 nM.
For the molecule `CN[C@@H](C)C(=O)N[C@H]1CN(C(=O)c2ccc(F)cc2)c2cc(Cl)ccc2N(Cc2c(OC)ccc3cc(Br)ccc23)C1=O` [Example 130, (S)-N-((S)-1-((6-bromo-2-methoxynaphthalen-1-yl)methyl)-7-chloro-5-(4-fluorobenzoyl)-2-oxo-2,3,4,5-tetrahydro-1H-benzo[b][1,4]diazepin-3-yl)-2-(methylamino)propanamide hydrochloride], the half-inhibitory concentration (IC50) at BIR3 domain of XIAP came out at 16400 nM; at BIR2 domain of XIAP (setting [1]), 35.6 nM.
Regarding `CCN[C@@H](CC)C(=O)NC1C(=O)N(Cc2c(OC)ccc3c(Br)cccc23)c2ccccc2N(c2ccccc2)C1=O` (stereo partly drawn) [Example 134, (2S)-N-(1-((5-bromo-2-methoxynaphthalen-1-yl)methyl)-2,4-dioxo-5-phenyl-2,3,4,5-tetrahydro-1H-benzo[b][1,4]diazepin-3-yl)-2-(ethylamino)butanamide], the IC50 on BIR3 domain of XIAP is over 54800 nM; on BIR2 domain of XIAP (IC50 BIR2) it was 32.5 nM.
`CN[C@@H](C)C(=O)N[C@H]1CN(C(=O)c2ccc(C#N)cc2)c2cc(Cl)ccc2N(Cc2c(OCC(F)(F)F)ccc3cc(Br)ccc23)C1=O` [Example 135, (S)-N-((S)-1-((6-bromo-2-(2,2,2-trifluoroethoxy)naphthalen-1-yl)methyl)-7-chloro-5-(4-cyanobenzoyl)-2-oxo-2,3,4,5-tetrahydro-1H-benzo[b][1,4]diazepin-3-yl)-2-(methylamino)propanamide hydrochloride]: the IC50 stood at 36200 nM on BIR3 domain of XIAP and 32 nM at BIR2 domain of XIAP (setting [1]).
Regarding `CC[C@H](N)C(=O)NC1C(=O)N(Cc2c(OC)ccc3c(Br)cccc23)c2ccccc2N(c2ccccc2)C1=O` (stereo partly drawn) [Example 137, (2S)-2-amino-N-(1-((5-bromo-2-methoxynaphthalen-1-yl)methyl)-2,4-dioxo-5-phenyl-2,3,4,5-tetrahydro-1H-benzo[b][1,4]diazepin-3-yl)butanamide], the IC50 on BIR3 domain of XIAP is over 54800 nM; at BIR2 domain of XIAP (IC50 BIR2), 29.8 nM.
Regarding `CC[C@H](NCCO)C(=O)NC1C(=O)N(Cc2c(OC)ccc3c(Br)cccc23)c2ccccc2N(c2ccccc2)C1=O` (stereo partly drawn) [Example 138, (2S)-N-(1-((5-bromo-2-methoxynaphthalen-1-yl)methyl)-2,4-dioxo-5-phenyl-2,3,4,5-tetrahydro-1H-benzo[b][1,4]diazepin-3-yl)-2-(2-hydroxyethylamino)butanamide], the IC50 is over 54800 nM at BIR3 domain of XIAP and 69.4 nM on BIR2 domain of XIAP (setting [1]).
For `CN[C@@H](C)C(=O)N[C@H]1CN(C(=O)c2ccc(C#N)cc2)c2cc(Cl)ccc2N(Cc2c(OC(F)F)ccc3ccccc23)C1=O` [Example 139, (S)-N-((S)-7-chloro-5-(4-cyanobenzoyl)-1-((2-(difluoromethoxy)naphthalen-1-yl)methyl)-2-oxo-2,3,4,5-tetrahydro-1H-benzo[b][1,4]diazepin-3-yl)-2-(methylamino)propanamide hydrochloride], the IC50 at BIR3 domain of XIAP turned out to be 36900 nM; at BIR2 domain of XIAP (setting [1]), 34.7 nM.
The corresponding values for `CN[C@@H](C)C(=O)N[C@H]1CN(C(=O)c2ccc(C#N)cc2)c2cc(C#N)ccc2N(Cc2c(OC)ccc3c(Br)cccc23)C1=O` [Example 143, (S)-N-((S)-1-((5-bromo-2-methoxynaphthalen-1-yl)methyl)-7-cyano-5-(4-cyanobenzoyl)-2-oxo-2,3,4,5-tetrahydro-1H-benzo[b][1,4]diazepin-3-yl)-2-(methylamino)propanamide hydrochloride] are 16300 nM and 5.11 nM.
As for `CCN[C@@H](C)C(=O)N[C@H]1CN(C(=O)CS(C)(=O)=O)c2ccccc2N(Cc2c(OC)ccc3cc(Br)ccc23)C1=O` [Example 149, (S)-N-((S)-1-((6-bromo-2-methoxynaphthalen-1-yl)methyl)-5-(2-(methylsulfonyl)acetyl)-2-oxo-2,3,4,5-tetrahydro-1H-benzo[b][1,4]diazepin-3-yl)-2-(ethylamino)propanamide], the IC50 at BIR3 domain of XIAP was over 54800 nM; on BIR2 domain of XIAP (setting [1]), 183 nM.
`CN[C@@H](C)C(=O)N[C@H]1CN(C(=O)c2ccc(F)cc2)c2cc(C#N)ccc2N(Cc2c(OC(F)F)ccc3ccccc23)C1=O` [Example 151, (S)-N-((S)-7-cyano-1-((2-(difluoromethoxy)naphthalen-1-yl)methyl)-5-(4-fluorobenzoyl)-2-oxo-2,3,4,5-tetrahydro-1H-benzo[b][1,4]diazepin-3-yl)-2-(methylamino)propanamide hydrochloride]: the IC50 on BIR3 domain of XIAP came out at 49000 nM; on BIR2 domain of XIAP (setting [1]), 28.4 nM.
For `CCN[C@@H](CC)C(=O)N[C@H]1CN(C(=O)CS(C)(=O)=O)c2ccccc2N(Cc2c(OC)ccc3c(Br)cccc23)C1=O` [Example 155, (S)-N-((S)-1-((5-bromo-2-methoxynaphthalen-1-yl)methyl)-5-(2-(methylsulfonyl)acetyl)-2-oxo-2,3,4,5-tetrahydro-1H-benzo[b][1,4]diazepin-3-yl)-2-(ethylamino)butanamide hydrochloride] the same measures were over 54800 nM and 18.6 nM.
